Assay results from paper PMC4310642 (Journal of Medicinal Chemistry, 2014).

Legend:
[1] = system: PKCδ C1b domain S10R mutant; format: binding
[2] = biological target: PKCδ C1b domain P11R mutant (Mus musculus, UniProt P28867, P241R); assay: Competitive [20-3H]PDBu binding to GST-C1b domain, P11R
[3] = biological target: PKCδ C1b domain N7R mutant (Mus musculus, UniProt P28867, N237R); assay: Competitive [20-3H]PDBu binding to GST-C1b domain, N7R
[4] = biological target: PKCδ C1b domain N7R/S10R/L20R triple mutant (Mus musculus, UniProt P28867, L250R/N237R/S240R); assay: Competitive [20-3H]PDBu binding to GST-C1b domain, N7R/S10R/L20R
PKCδ C1b domain N7R/S10R/L20R triple mutant, sequence (P28867 230-280 N237R/S240R/L250R): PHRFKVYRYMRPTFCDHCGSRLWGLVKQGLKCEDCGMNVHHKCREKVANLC

PKCδ C1b domain N7R mutant, sequence (P28867 230-280 N237R): as the sequence (P28867 230-280 N237R/S240R/L250R) above, with R11S, R21L counted along it
PKCδ C1b domain P11R mutant, sequence (P28867 230-280 P241R): as the sequence (P28867 230-280 N237R/S240R/L250R) above, with R8N, R11S, P12R, R21L counted along it

SMILES | binding to S10R compared to the wild-type δC1B domain [1] | binding to P11R weaker than to the wild-type δC1B domain [2] | binding to N7R weaker than to the wild-type δC1B domain [3] | reduction in binding affinity with the triple mutant N7R/S10R/L20R compared to the wild-type [4]
CCCC(=O)O[C@@H]1[C@@H](C)[C@@]2(O)[C@@H](C=C(CO)C[C@]3(O)C(=O)C(C)=C[C@@H]23)[C@@H]2C(C)(C)[C@]12OC(=O)CCC [PDBu, phorbol 12,13-dibutyrate] | essentially the same | about 5 fold | about 5 fold | 
CC(C)CC(C/C=C1\CC(CO)(COC(=O)C(C)(CO)CO)OC1=O)CC(C)C (stereo not shown) [13-E] |  |  |  | no further loss of affinity
